Test results as given in patent US9598463B2, “Mucin hypersecretion inhibitors and methods of use” (BIOMARCK PHARMACEUTICALS, LTD., priority 2005, dated 2017).
Marks after values point to notes of the source that are not given here. Where a SMILES comes first, the peptide text is derived from it. The star is where a group is joined. Myristoyl = CCCCCCCCCCCCCC(=O)*

What was measured:
[1] = Qualitative solubility of test peptides in 0.5 N saline; assay type: physicochemical; conditions: pH 6.5, 20° C. (table title)
How it was run: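 Weighed peptide (1 to 5 mg) titrated with 25 μL aliquots of 0.5 N saline, pH 6.5, at 25° C until dissolution judged visually. Solubility calculated from volume needed; complete dissolution in first aliquot reported as greater than, non-dissolution as less than, the calculated value.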

HBE1 cells = test: PMA-induced mucin hypersecretion in human bronchial epithelial cells (air/liquid interface, MUC5A ELISA); assay type: cell-based; conditions: for Block of PMA-induced increase in mucin secretion: pretreatment with 25 μM peptide
Description: HBE1 is a papilloma virus-transformed human bronchial epithelial cell line capable of mucin secretion when cultured in air/liquid interface. HBE1 cells were cultured in the air/liquid interface as described previously (Li et al, J. Biol. Chem., volume 276, pp 40982-40990, 2001). Briefly, HBE1 cells were cultured in air/liquid interface by seeding an appropriate number of cells in 12-well Transwell clear culture inserts (Costar, Cambridge, Mass.) that were thinly coated with rat tail collagen, type I (Collaborative Biomedical, Bedford, Mass.). Cells were initially cultured submerged in medium in a humidified 95% air, 5% CO2 environment for 5-7 days until nearly confluent. At that time, the air/liquid interface was created by removing the apical medium and feeding cells basalaterally. Medium was renewed daily thereafter. Cells were cultured for an additional 14 days to allow full differentiation. The accumulated mucin at the apical surface of the cells was removed by washing with phosphate-buffered saline, pH 7.2. To collect the baseline mucin secretion, cells were incubated for 30 min with medium alone and secreted mucin in the apical medium was collected, and quantitated by ELISA. To determine the mucin hypersecretion induced by a mucin secretagogue, cells were exposed to medium containing 0.5 μM phorbol myristate acetate, (PMA) for 30 min. and mucin was collected and quantitated by ELISA. […] Six wells were used for each test peptides and for each control. Secreted mucin in the apical medium was collected and quantitated by sandwich ELISA method using alkaline phosphatase-conjugated mucin (MUC5A) specific antibody (Zymed Laboratories, San Francisco, Calif.).

[2] = Solubility in sodium acetate, pH 7; assay type: physicochemical; conditions: 120 min sodium acetate, pH 7 (so in the source)
[3] = system: methacholine-induced mucin hypersecretion; test: Duration of action of test peptides in a murine model of asthma; assay type: in vivo; conditions: Balb/C mice
Description: (§1) Experiments were designed to test whether or not the MANS peptide and other test peptides related thereto inhibit hypersecretion of mucin in murine airway in vivo. The ovalbumin-sensitized mouse model of allergic inflammation and asthma used in these studies was as described by Singer et al. (2004), supra. As a negative control, a control peptide containing an N-terminal myristoyl group and the same amino acids as MANS peptide but arranged in random order (i.e., the random N-terminal sequence, RNS, myristoyl-peptide 232) was tested alongside the proposed active peptides. BP2 mice, aged 6-8 wks, were immunized subcutaneously twice at weekly intervals with 1 μg of ovalbumin. After 14 days of sensitization, the animals were exposed to aerosolized ovalbumin, which causes a pronounced goblet cell hyperplasia after 72 hours. At the 72 hr time point, the secretagogue, methacholine ([…]) was delivered using a Buxco system nebulizer providing a fine aerosol for 90 seconds. Fifteen min prior to the secretagogue challenge, 50 μL of the test peptide, at 3 different concentrations (10 μM, 100 μM, or 140 μM), was administered by intratracheal route. The RNS peptide was tested at the highest dose level only (50 μL of 140 μM solution). […] Each experiment was carried out in 6 mice per point, and each set of experiments was repeated 3 times. To test strain-to-strain variations, the above experiment was repeated in Balb/C mice under similar protocol. Both stimulated and unstimulated mucin secretion, in mice treated with […] sodium acetate (data not shown), were identical to saline control. Following the methacholine challenge, the animals were sacrificed and bronchoalveolar lavage (BAL) performed on 6 animals per group for analysis of secreted mucin.
(§2) Mice were sacrificed by cervical dislocation, followed by rapid exposure of the trachea and insertion of a cannula through a small incision. Bronchoalveolar lavage (BAL) fluid was collected with 0.5 ml followed by 3×1 ml PBS containing PMSF (5 mM), EDTA (5 mM), and DTT (5 mM). BAL fluid was separated into cell-free and cell fractions via brief centrifugation prior to any analyses being performed. The cell-free supernatants were analyzed for the presence of mucin via an ELISA method using anti-mucin antibodies shown to react with mouse mucin. Specifically, a mouse anti-MUC5AC antibody that recognizes the carbohydrate portion of secreted mucin was used in these assays. Data generated from each BAL sample were normalized to total protein as determined by Bradford assay. Mucin content was expressed as the value obtained with the anti-mucin antibody minus that obtained with the non-immune control antibody. All ELISA data were statistically examined using a one-way ANOVA.
Experiments were designed to determine the duration of action of test peptides in a murine model of asthma. As described in Method 1A, Balb/C mice were immunized with ovalbumin. After 14 days, the animals were challenged with aerosolized ovalbumin. After 72 hours the secretagogue, methacholine was delivered by aerosolization. The test peptides ([…] of 100 µM solution) were administered by intratracheal route 30 min, 60 min, or 120 min prior to methacholine challenge. The animals were sacrificed and BAL performed for analysis of secreted mucin The results of this experiment are given in Table VI.

[4] = system: methacholine-induced mucin hypersecretion; test: Methacholine-induced mucin hypersecretion in ovalbumin-sensitized mouse model of asthma, BAL mucin ELISA (BP2 mice); assay type: in vivo
Description: as §1, §2

[5] = system: methacholine-induced mucin hypersecretion; test: Methacholine-induced mucin hypersecretion in ovalbumin-sensitized mouse model of asthma, BAL mucin ELISA (Balb/C mice); assay type: in vivo; conditions: for Mucin Secretion % control: peptides at 100 μM; for Mucin Secretion % of control: Table IV, peptide 100 μM
How it was run: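 BP2 or Balb/C mice immunized s.c. twice weekly with 1 μg ovalbumin, aerosol ovalbumin challenge after 14 days, then aerosolized methacholine 72 h later. Anti-MUC5AC ELISA on cell-free BAL, minus non-immune antibody signal, normalized to Bradford protein; 6 mice per group.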

nasal mucus secretion = test: Mucus secretion in upper respiratory tract of primates (nasal lavage, ELISA); assay type: in vivo; conditions: rhesus monkeys; 2.0 mL of 140 μM solution in right nostril; nasal lavage 1 hour after treatment
Description: The purpose of the experiment was to determine the ability of MANS peptide to inhibit mucus secretion in the upper respiratory tract of healthy adult rhesus monkeys. The test used is a standard method for evaluation of nasal secretory activity, and non-human primates typically provide a good correlation to activity in man.
A total of 17 healthy young adult male rhesus monkeys without any prior history of rhinitis were used for the experiment. None of the monkeys had rhinitis before or after the study. The nasal mucus secretion of each monkey was measured in its left nostril prior to any treatment. This value is considered 100% mucus secretion. The monkeys were then randomly divided into the following 4 groups: • Group 1: Normal saline, control (n=3); • Group 2: Sodium acetate, solvent control (n=4); • Group 3: RNS peptide, negative control (n=5); and • Group 4: MANS peptide, test peptide (n=5).
Saline was placed in the left nostril of all 17 animals prior to any treatment. The right nostrils were treated with 2.0 mL of either saline, sodium acetate, RNS peptide or the MANS peptide. Thus, each animal had its own internal control. Nasal lavage was performed on both nostrils of each animal 1 hour after the treatment with the test articles. All lavages were immediately frozen at −80° C. and analyzed for mucus content by ELISA. […]

[6] = peptide intratracheal 30 min prior to methacholine challenge
[7] = peptide intratracheal 60 min prior to methacholine challenge
[8] = peptide intratracheal 120 min prior to methacholine challenge
[9] = Table II, 50 μL intratracheal 15 min before methacholine

Compound | solubility [1] [mg/mL] | Mucin secretion level below the unstimulated medium control (HBE1 cells; 25 μM peptide, then 0.5 μM PMA) [%] | Block of PMA-induced increase in mucin secretion (HBE1 cells; then 0.5 μM PMA) [%] | Solubility in sodium acetate [2] | Duration of action, mucin secretion (% of Control) [3, 6] | Duration of action, mucin secretion (% of Control) [3, 7] | Duration of action, mucin secretion (% of Control) [3, 8] | Mucin Secretion % of control ([4]; peptide 100 μM) | Mucin Secretion % of control ([4]; peptide 140 μM) | Mucin Secretion % control [5, 9] [% control] | Mucin Secretion % control ([5]; Table III) | Mucin Secretion % of control [5] | Inhibition of mucus secretion (nasal mucus secretion) | Mucin Secretion % of control ([4]; peptide 10 μM) | Inhibitory effect on PMA-induced increase in mucin secretion (HBE1 cells; peptide concentration not given, 0.5 μM PMA) [%]
CC(=O)N[C@@H](C)C(=O)N[C@@H](CCCCN)C(=O)NCC(=O)N[C@@H](CCC(=O)O)C(=O)O [Ac-peptide 219] (Ac-AKGE-OH) | > 200 | 20 | 100 | – | – | – | – | – | – | – | – | – | – | – | –
CCCCCCCCCCCCCC(=O)NCC(=O)N[C@H](C(=O)N[C@@H](C)C(=O)N1CCC[C@H]1C(=O)N[C@@H](C)C(=O)N[C@@H](C)C(=O)N[C@@H](CCC(=O)O)C(=O)NCC(=O)N[C@@H](C)C(=O)NCC(=O)N[C@@H](C)C(=O)N[C@@H](CCC(=O)O)C(=O)N[C@H](C(=O)N[C@@H](CCCCN)C(=O)N[C@@H](CCCNC(=N)N)C(=O)N[C@@H](C)C(=O)N[C@@H](CO)C(=O)N[C@@H](C)C(=O)N[C@@H](CCC(=O)O)C(=O)N[C@@H](C)C(=O)N[C@@H](CCCCN)C(=O)N[C@@H](CCC(N)=O)C(=O)N[C@@H](C)C(=O)N[C@@H](Cc1ccccc1)C(=O)O)C(C)C)[C@@H](C)O [myr-peptide 232, reference compound] (Myristoyl-GTAPAAEGAGAEVKRASAEAKQAF-OH) | > 15 | – | – | freely soluble | 100 % of Control | 100 % of Control | 100 % of Control | 100 % of Control | 100 % of Control | 96 | 81** % control | 108 % of control | did not have any effect | – | –
CCCCCCCCCCCCCC(=O)NCC(=O)N[C@@H](C)C(=O)N[C@@H](CCC(N)=O)C(=O)N[C@@H](Cc1ccccc1)C(=O)N[C@@H](CO)C(=O)N[C@@H](CCCCN)C(=O)N[C@H](C(=O)N[C@@H](C)C(=O)N[C@@H](C)C(=O)N[C@@H](CCCCN)C(=O)NCC(=O)N[C@@H](CCC(=O)O)C(=O)N[C@@H](C)C(=O)N[C@@H](C)C(=O)N[C@@H](C)C(=O)N[C@@H](CCC(=O)O)C(=O)N[C@@H](CCCNC(=N)N)C(=O)N1CCC[C@H]1C(=O)NCC(=O)N[C@@H](CCC(=O)O)C(=O)N[C@@H](C)C(=O)N[C@@H](C)C(=O)N[C@H](C(=O)N[C@@H](C)C(=O)O)C(C)C)[C@@H](C)O [myr-peptide 1, reference compound] (Myristoyl-GAQFSKTAAKGEAAAERPGEAAVA-OH) | < 5 | – | 100 | freely soluble | 7 % of Control | 44 % of Control | 50 % of Control | 12 % of Control | 8 % of Control | 33.8 | 40 % control | 29** % of control | ~75% | 35 % of Control | –
CC(=O)N[C@@H](C)C(=O)N[C@@H](C)C(=O)NCC(=O)N[C@@H](CCC(=O)O)C(=O)O [Ac-peptide 251] (Ac-AAGE-OH) | > 200 | – | – | – | – | – | – | – | – | – | – | – | – | – | 6
